Data from patent US20240325336A1, “COMBINATION THERAPIES COMPRISING OXYGEN-CONTAINING STRUCTURALLY ENHANCED FATTY ACIDS FOR TREATMENT OF NON-ALCOHOLIC STEATOHEPATITIS” (NORTHSEA THERAPEUTICS B.V., priority 2020, published 2024).
Entries after “also recorded” stand apart in the source; their conditions may differ.

Experiments:
male CDAA-HFD mice [1] = experiment: CDAA/high-fat diet NASH mouse model: hepatic steatosis (H&E image analysis, steatosis score); assay type: in vivo; conditions: 8 weeks QD; for hepatic steatosis area (relative liver lipids): compared to untreated vehicle group (FIG. 5A); for percentage of hepatocytes with lipid droplets: compared to untreated vehicle group (FIG. 5B); for steatosis scores: compared to untreated vehicle group (FIG. 6)
Excerpt: (§1) Although the widely used methionine-choline deficient (MCD) diet consistently reproduces severe NASH-like hepatic inflammation and fibrosis in mice, it is also associated with severe weight-loss (loss of both skeletal muscle and fat mass). This is associated with an increased risk of death which presents major problems for long-term fibrogenesis experiments. […] In the current study, male mice (strain C57BI/6JRj) were fed choline deficient high-fat diets (45% of total calories from fat; “CDAA/high-fat” or “CDAA-HFD”). The NASH inducing diet was instigated 6 weeks prior to the commencement of administration of active agents in order to evaluate treatment and reversal of NASH parameters. The NASH inducing CDAA-HFD was continued for the 8 weeks of administration of the indicated active agents and combinations thereof.
(§2) Prior to administration of the activate agents, animals were randomized into treatment groups based on body weight. A baseline group (n=12) was terminated at study start after 6 weeks on the CDAA-HFD diet. CDAA-HFD fed mice (n=10-12 per group) received daily per oral (PO) treatment with vehicle, Compound A (112 mg/kg), OCA (30 mg/kg), semaglutide (30 nmol/kg SC), firsocostat (5 mg/kg), Compound A+Semaglutide (112 mg/kg+30 nmol/kg), Compound A+OCA (112 mg/kg+30 mg/kg), and Compound A+firsocostat (112 mg/kg+5 mg/kg) for 8 weeks. Terminal liver biopsy were analyzed for histopathological scores. Terminal quantitative endpoints included plasma/liver biochemistry and liver histomorphometry.
(§3) Liver samples stained with Hematoxylin and Eosin (H&E) or Picro Sirius Red (PSR) were scored for NAS components (steatosis, lobular inflammation, and ballooning degeneration) and fibrosis stage respectively using the clinical criteria outlined by Kleiner et al., Hepatology, 2005; 41. Total NAS represents the sum of scores for steatosis, inflammation, and ballooning, and ranges from 0-8.
(§4) NAS and fibrosis stage was determined by deep learning applications developed by Gubra (Denmark) using the VIS software (Visiopharm®, Denmark) for a more accurate and objective method for staging disease in DIO-NASH mouse models.
(§5) Scanned H&E stained slides were analyzed in several steps: • 1. Tissue detection at low magnification, followed by deep learning-based detection of portal triads and central veins at 10× magnification. • 2. Another deep learning application detected nuclei of hepatocytes with lipid droplets, hepatocytes without lipids, ballooned hepatocytes, and inflammatory cells at 20× magnification. Inflammatory foci were defined as a cluster of >3 inflammatory cells. • 3. The inflammation score of the liver tissue sample was the average score for all 20× fields.
Steatosis score was calculated as percentage of hepatocytes with lipid droplets.
Hepatic steatosis area (relative liver lipids) was quantified on H&E stained slides by image analysis using the VIS software (Visiopharm®, Denmark). VIS protocols are designed to analyze the virtual slides in two steps: • 1. Tissue detection at low magnification (1× objective); and • 2. Detection of steatosis and tissue at high magnification (20× objective).
The quantitative estimates of steatosis were calculated as an area fraction as follows: […]

male CDAA-HFD mice [2] = experiment: CDAA/high-fat diet NASH mouse model: hepatic fibrosis markers (hydroxyproline, galectin-3, PSR, α-SMA); assay type: in vivo; conditions: 8 weeks QD; for galectin-3 hepatic fractional area: compared to untreated vehicle group (FIG. 9B); for hepatic fibrotic area determined by PSR staining: compared to untreated vehicle group (FIG. 10A); for sinusoidal fibrotic area (PSR): compared to untreated vehicle group (FIG. 10B)
Excerpt: as §1, §2
Scanned PSR stained slides were analyzed in several steps: • 1. Tissue detection at low magnification, followed by deep learning-based detection of portal triads and central veins at 10× magnification. Periportal zone was defined as 100 μm around the portal triads. • 2. Fibrosis fibers were detected using the linear Bayesian image analysis method in the periportal and sinusoidal zones. • 3. Bridging was detected using threshold image analysis based on a polynomial local linear filter feature. • 4. Different measures of size, shape and connectivity form both fibrosis and bridging fibrosis in the two zoned were used in a XGBoost classifier to predict fibrosis stage.
Immunohistochemistry (IHC)-positive staining was quantified by image analysis using the VIS software (Visiopharm®, Denmark) using two steps: • 1. Detection of tissue at low magnification (1× objective), excluding the liver capsule; and • 2. Detection of IHC-positive staining.
The quantitation of IHC-positive staining is calculated as an area fraction as follows: […]
IHC factional area quantification was assessed for galectin-3, collagen 1A1, and α-smooth muscle actin.
Hepatic factional area assessment with picrosirius red stain was determined using the same methods.
Hepatic fibrotic area was determined by staining with picrosirus red (PSR), which binds collagen, and histological quantitative assessment.

male CDAA-HFD mice [3] = experiment: CDAA/high-fat diet NASH mouse model: liver total cholesterol and triglycerides; assay type: in vivo; conditions: 8 weeks QD; for relative levels of liver total cholesterol (normalized to liver weight): compared to untreated vehicle group (FIG. 4A); for relative levels of liver triglycerides (normalized to liver weight): compared to untreated vehicle group (FIG. 4B)
Excerpt: as §1
(§6) The aim of this study was to evaluate the effects of 8 weeks of administration of Compound A, OCA, semaglutide, and firsocostat alone and in combination on metabolic parameters, hepatic pathology, and on NAFLD Activity Score including Fibrosis Stage in male CDAA-HFD mice.
as §2

male CDAA-HFD mice [4] = experiment: CDAA/high-fat diet NASH mouse model: hepatic inflammation and NAFLD activity score; assay type: in vivo; conditions: 8 weeks QD; for number of inflammatory cells (per mm^2): compared to untreated vehicle group and to baseline levels (FIG. 7A); for inflammatory foci (per mm^2): compared to untreated vehicle group and to baseline levels (FIG. 7B); for NAFLD activity scores (NAS): compared to untreated vehicle group (FIG. 8B)
Excerpt: as §1, §2, §3, §4, §5

[5] = CDAA/high-fat diet NASH mouse model: relative body weight and liver weight; assay type: in vivo; conditions: CDAA-HFD mice, 8 weeks QD; for liver weight: compared to untreated vehicle group (FIG. 1B)
Excerpt: as §1, §6, §2

male CDAA-HFD mice [6] = experiment: CDAA/high-fat diet NASH mouse model: plasma triglycerides and total cholesterol; assay type: in vivo; conditions: 8 weeks QD, compared to untreated vehicle group (FIG. 3A)
Excerpt: as §1, §6
Prior to administration of the activate agents, animals were randomized into treatment groups based on body weight. […] Terminal liver biopsy were analyzed for histopathological scores. Terminal quantitative endpoints included plasma/liver biochemistry and liver histomorphometry.

rodent NASH models = conditions: APOE*3Leiden.CETP high-fat diet, ob/ob AMLN, STAM and CDAA/high-fat diet mouse models; WO2019111048; cited from earlier work
APOE*3Leiden.CETP mice = conditions: WO2016173923A1, cited from earlier work

## semaglutide
Male CDAA-HFD mice [1]
  hepatic steatosis area (relative liver lipids): not significantly affecting either parameter; also recorded: did not have a significant effect
  percentage of hepatocytes with lipid droplets: not significantly affecting either parameter; also recorded: did not significantly affect
Male CDAA-HFD mice [2]
  galectin-3 hepatic fractional area: not having a significant effect
  hepatic fibrotic area determined by PSR staining: did not significantly affect
  sinusoidal fibrotic area (PSR): Neither compound alone had a significant effect
Male CDAA-HFD mice [2]; listed as semaglutidue
  galectin-3 hepatic fractional area: neither semaglutidue nor firsocostat having a significant effect
Male CDAA-HFD mice [2]; vs baseline (6 weeks CDAA-HFD, before therapy) (FIG. 9B)
  galectin-3 expressing area compared to baseline: significantly increased
Male CDAA-HFD mice [3]
  relative levels of liver total cholesterol (normalized to liver weight): did not significantly affect
  relative levels of liver triglycerides (normalized to liver weight): not significantly affecting
Male CDAA-HFD mice [4]
  number of inflammatory cells (per mm^2): not having a significant effect
  inflammatory foci (per mm^2): not having a significant effect
[5]
  liver weight: decreased
[5]; compared to vehicle (FIG. 1A)
  last recorded relative body weight: decreased

## COc1ccccc1[C@H](Cn1c(=O)n(C(C)(C)C(=O)O)c(=O)c2c(C)c(-c3ncco3)sc21)OC1CCOCC1 [firsocostat]
Male CDAA-HFD mice [1]
  hepatic steatosis area (relative liver lipids): significantly greater
  percentage of hepatocytes with lipid droplets: significantly decreased
  steatosis scores: decreased
Male CDAA-HFD mice [2]
  galectin-3 hepatic fractional area: neither semaglutidue nor firsocostat having a significant effect
Male CDAA-HFD mice [4]
  NAFLD activity scores (NAS): significantly decreased

## CC/C=C\C/C=C\C/C=C\C/C=C\C/C=C\CCCCOC(CC)C(=O)O (centres unmarked) [Compound A, 2-((5Z,8Z,11Z,14Z,17Z)-icosa-5,8,11,14,17-pentaenyloxy)butanoic acid]
Male CDAA-HFD mice [1]
  percentage of hepatocytes with lipid droplets: significantly decreased
  steatosis scores: decreased
Male CDAA-HFD mice [2]
  galectin-3 hepatic fractional area: significantly decreased
  hepatic fibrotic area determined by PSR staining: significantly decreased
  sinusoidal fibrotic area (PSR): Neither compound alone had a significant effect
Male CDAA-HFD mice [2]; compared to untreated vehicle group (FIG. 11B)
  hepatic area expressing α-SMA: neither Compound A nor OCA significantly affecting
Male CDAA-HFD mice [6]
  plasma triglycerides: significantly decreased
Male CDAA-HFD mice [3]
  relative levels of liver total cholesterol (normalized to liver weight): significant decrease
  relative levels of liver triglycerides (normalized to liver weight): significant decrease
Male CDAA-HFD mice [4]
  NAFLD activity scores (NAS): significantly decreased
  number of inflammatory cells (per mm^2): significant decrease; also recorded: below the baseline level
  inflammatory foci (per mm^2): significant decrease; also recorded: below the baseline level
Rodent NASH models
  effect on aspects of NASH (hepatic steatosis, inflammation, fibrosis): address multiple aspects of NASH, including hepatic steatosis, inflammation, and fibrosis
[5]
  liver weight: decreased

## CC/C=C\C/C=C\C/C=C\C/C=C\C/C=C\CCCCSC(CC)(CC)C(=O)O [Compound N, 2-ethyl-2-((5Z,8Z,11Z,14Z,17Z)-icosa-5,8,11,14,17-pentaenylthio)butanoic acid]
APOE*3Leiden.CETP mice; APOE*3Leiden.CETP mice
  fibrosis (as measured by hydroxyproline/proline ratio): effective in reducing fibrosis
APOE*3Leiden.CETP mice
  influx of inflammatory cells into the liver: prevented
  preventing diet-induced hepatic fibrosis, compared with rosiglitazone: superior to rosiglitazone
